Legend:
plasmin = test: Plasmin proteolytic activity in presence of TXA, S-2403 chromogenic substrate; assay type: biochemical, human; conditions: plasmin 1 mg/mL; TXA 0.001 mM to 100 mM; FIG. 3
From the text: S-2403 is a commercially available, plasmin specific chromogenic substrate.

[1] = Plasmin activity after storage, S-2403 chromogenic substrate; assay type: biochemical; conditions: plasmin 1 mg/mL stored at 0° C. over a 24-hour period; FIG. 4A
Protocol: To assess the compatibility of plasmin as an additive in Cold Storage Solutions, the activity of plasmin at a concentration of 1 mg/mL was assessed at multiple time points whilst stored at 0° C.
(white bars), 25° C. (black bars), or 37° C. (striped bars) for a 24 hour period. The commercial S-2403 plasmin specific chromogenic substrate was used to assess activity at each of the indicated times.
Significant plasmin activity is maintained when formulated with these excipients and diluted into organ preservation and reconditioning solutions. The commercial […] plasmin specific chromogenic substrate was used to assess activity at each of the indicated times.

## NC[C@H]1CC[C@H](C(=O)O)CC1 [TXA, tranexamic acid]
plasmin
  proteolytic activity of plasmin (kinetics): unaltered kinetics

## plasmin
[1]
  plasmin activity (kinetics) during storage: unaltered kinetics
